Results from paper PMC6440977, “Nucleoside analogue activators of cyclic AMP-independent protein kinase A of Trypanosoma” (Nature Communications, 2019).
Values joined by “and” are separate entries in the source; they are usually repeats but may differ in a detail not shown here. Identical values can stand only once. Like-named read-outs stand apart in the source and are kept apart here.

Tests used:
[1] = target: T. brucei PKAR-PKAC1 holoenzyme (Trypanosoma brucei, UniProt Q9GU80); assay: biochemical; type: biochemical; conditions: for In vitro kinase assay: technical replicates
Chain of T. brucei PKAR-PKAC1 holoenzyme (Q38DR5 entry or part of it): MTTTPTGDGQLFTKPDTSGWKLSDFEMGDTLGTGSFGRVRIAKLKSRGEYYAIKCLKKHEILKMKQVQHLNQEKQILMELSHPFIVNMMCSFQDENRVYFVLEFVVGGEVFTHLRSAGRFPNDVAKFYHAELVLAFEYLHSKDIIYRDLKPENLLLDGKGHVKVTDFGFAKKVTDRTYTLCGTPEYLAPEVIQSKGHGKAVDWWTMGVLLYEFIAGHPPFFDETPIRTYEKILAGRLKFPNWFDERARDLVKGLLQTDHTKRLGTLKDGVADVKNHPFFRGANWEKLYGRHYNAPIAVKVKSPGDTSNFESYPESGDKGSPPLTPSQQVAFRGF
Chain of T. brucei PKAR-PKAC1 holoenzyme (Q9GU80 entry or part of it): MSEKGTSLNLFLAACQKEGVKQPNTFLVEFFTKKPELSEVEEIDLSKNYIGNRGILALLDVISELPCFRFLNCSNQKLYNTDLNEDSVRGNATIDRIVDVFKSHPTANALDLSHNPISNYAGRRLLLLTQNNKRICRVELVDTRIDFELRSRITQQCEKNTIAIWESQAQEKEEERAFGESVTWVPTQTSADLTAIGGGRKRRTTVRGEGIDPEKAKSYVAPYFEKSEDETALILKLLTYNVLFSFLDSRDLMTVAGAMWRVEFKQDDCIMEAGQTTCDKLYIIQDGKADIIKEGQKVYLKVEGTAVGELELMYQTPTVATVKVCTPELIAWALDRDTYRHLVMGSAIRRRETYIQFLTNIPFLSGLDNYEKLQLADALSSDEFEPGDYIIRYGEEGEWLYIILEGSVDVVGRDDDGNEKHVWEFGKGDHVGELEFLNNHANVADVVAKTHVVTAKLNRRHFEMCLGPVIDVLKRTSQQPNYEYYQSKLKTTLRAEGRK

T. brucei PKAR(199–499) = T. brucei PKAR(199–499) (Trypanosoma brucei, UniProt Q9GU80); assay: biochemical; type: binding; parameters: Thermodynamics (ITC) -TΔS / Thermodynamics (ITC) ΔG / Thermodynamics (ITC) ΔH: unit: kcal/mol
Chain of T. brucei PKAR(199–499) (Q9GU80 entry or part of it): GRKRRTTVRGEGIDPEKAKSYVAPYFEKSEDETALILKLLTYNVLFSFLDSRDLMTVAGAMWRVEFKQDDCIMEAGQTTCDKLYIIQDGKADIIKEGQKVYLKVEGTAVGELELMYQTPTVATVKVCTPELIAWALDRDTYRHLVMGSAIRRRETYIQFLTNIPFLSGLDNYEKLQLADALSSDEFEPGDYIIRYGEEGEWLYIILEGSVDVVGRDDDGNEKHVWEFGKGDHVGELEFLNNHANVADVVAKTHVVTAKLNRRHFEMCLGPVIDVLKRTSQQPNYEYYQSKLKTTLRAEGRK

[2] = test system: RXXS*/T* site phosphorylation; assay: Western blot of global RXXS*/T* site phosphorylation (phospho-PKA substrate antibody); type: cell-based, Trypanosoma brucei; conditions: wild type, 2 µM, 10 min
metacaspase 4 (MCA4) = type: cell-based, Trypanosoma brucei; conditions: for MCA4 counts / MCA4 normalized / MCA4 fold change: 4 µM; for MCA4 normalized: normalized to PFR-A/C; for MCA4 fold change: untreated WT set to 1
PKAR = assay: Western blot quantification of protein abundance, PKAR; type: cell-based, Trypanosoma brucei; conditions: WT cells, normalized to PFR, WT 0h set to 1, individual replicates
Excerpt: Replicate 1 Replicate 2 Replicate 3 PKAR
WT pkar KOWT pkar KO pkar WTKO1.0PKAC1/2 […]
(a) Samples prepared for quantitative proteome analysis: PKAR and PKAC1/2 protein levels (top Western panels, red) and RXXS*/T* phos-phorylation (bottom Western panels, phospho-specific anti-RXXS*/T*, red) are quantified as summarized in the column charts next to the Western blots. The scanned values were normalized to the loading control (PFR-A/C, green) and the untreated wild type sample was set to 1. Wild type (WT) and ∆pkar/∆pkar (pkar KO) cells were treated with 7-CN-7-C-Ino (Ino) for the indicated time (PKAR/PKAC1 expression) or for 10 min (RXXS*/T* phosphorylation). Error bars represent SD of three independent experiments.
>1.5 fold (vertical dashed lines) with a p-value of <0.05 (Welch’s t-test, two-sided) are labeled as blue dots with their TriTrypDB IDs.
Source data are provided as a Source Data file.
(also on this page, place not known: WT -Log10 WT6 -Log KO6 2 4 KO -1 / KO0 -Log10 p-value KO12 / KO0 2 4 10 WT (b) p-value p-value 2 4 -Log10 p-value / WT0 -1 0 1 WT12 / WT0 Fold expression 0 0 WT KO 1.0 PKAC1/2 WT pkar KO + - 0 1 2 4 Fold RXXS/T phosphorylation 11) […]
For Western blot analysis14, the primary antibodies anti-PKAR7 (1:500), anti - […]
(ThermoFisher, catalogue number A27042, 1:5000) were used for detection using the OdysseyTM IR fluorescence scanning system. […]

T. brucei BSF cells (WT) = assay: Alamar blue cell viability assay, wild type;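 note: trypanosomes seeded at 5×10^3 per ml and grown 72 h with compound, then resazurin 0.5 mM added for 4 h as the viability read-out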

## N#Cc1cn([C@@H]2O[C@H](CO)[C@@H](O)[C@H]2O)c2ncnc(O)c12 [7-CN-7-C-Ino, 7-Cyano-7-deazainosine]
[1]; 0.00014 µM
  In vitro kinase assay: 0.05 U/ml and 0.04 U/ml (2×)
[1]; 0.00041 µM
  In vitro kinase assay: 0.05 U/ml
[1]; 0.00123 µM
  In vitro kinase assay: 0.08 U/ml and 0.07 U/ml (2×)
[1]; 0.0037 µM
  In vitro kinase assay: 0.12 U/ml
[1]; 0.01111 µM
  In vitro kinase assay: 0.16 U/ml (2×) and 0.18 U/ml
[1]; 0.03333 µM
  In vitro kinase assay: 0.2 U/ml and 0.19 U/ml (2×)
[1]; 0.1 µM
  In vitro kinase assay: 0.18 U/ml and 0.17 U/ml and 0.19 U/ml
[1]; 0.3 µM
  In vitro kinase assay: 0.17 U/ml and 0.2 U/ml and 0.16 U/ml
[1]; ratio of EC50
  higher activation potency on purified holoenzyme compared to Toyo: 36 fold
T. brucei PKAR(199–499); 298 K, mean ± SD, n=3, read-out: KD in vitro binding to PKAR (ITC)
  Kd: 0.008 ± 0.002 µM
T. brucei PKAR(199–499); ITC, mean
  −TΔS (entropic component of binding): -2.3 kcal/mol
T. brucei PKAR(199–499); independent replicates
  Thermodynamics (ITC) -TΔS: -2.82 and -2.13 and -1.91
  Thermodynamics (ITC) ΔG: -11.3 and -10.9 and -11
  Thermodynamics (ITC) ΔH: -8.48 and -8.8 and -9.1
T. brucei PKAR(199–499); ligand to protein, mean ± SD, n=3
  Molar ratio of binding (ITC): 2 ± 0.2
T. brucei PKAR(199–499); ratio of KD
  higher binding affinity to PKAR compared to Toyo: 7 fold
[2]
  increase in global RXXS*/T* site phosphorylation: 3–4 fold
Metacaspase 4 (MCA4); KO cells + Ino, normalized to PFR, WT set to 1, individual replicates, protein not given
  Western quantification, KO + Ino: 0.3769 and 0.643 and 0.8892
Metacaspase 4 (MCA4); WT cells + Ino, normalized to PFR, WT set to 1, individual replicates, protein not given
  Western quantification, WT + Ino: 3.707 and 4.121 and 2.558
Metacaspase 4 (MCA4); WT, 12 h
  MCA4 counts: 9.21
  MCA4 normalized: 5.616
  MCA4 fold change: 0.3804
Metacaspase 4 (MCA4); WT, 18 h
  MCA4 counts: 7.41
  MCA4 normalized: 5.37
  MCA4 fold change: 0.3637
Metacaspase 4 (MCA4); WT, 24 h
  MCA4 counts: 7.18
  MCA4 normalized: 4.603
  MCA4 fold change: 0.3117
Metacaspase 4 (MCA4); pkar KO, 12 h
  MCA4 counts: 8.83
  MCA4 normalized: 0.3995
  MCA4 fold change: 0.8235
Metacaspase 4 (MCA4); pkar KO, 18 h
  MCA4 counts: 9.5
  MCA4 normalized: 0.5278
  MCA4 fold change: 1.088
Metacaspase 4 (MCA4); pkar KO, 24 h
  MCA4 counts: 10.63
  MCA4 normalized: 0.3562
  MCA4 fold change: 0.7342
Metacaspase 4 (MCA4); wild type, 12 h post induction
  MCA4 abundance, in words: decreased
PKAR; 6 h treatment
  PKAR Western quantification: 0.8653 and 0.7031 and 1.455
PKAR; 12 h treatment
  PKAR Western quantification: 0.7135 and 0.7185 and 1.457
T. brucei BSF cells (WT)
  increase of EC50 for cell viability compared to Toyo: > 170 fold
T. brucei BSF cells (WT); Trypanosoma brucei, 72 h, read-out: IC50 growth WT
  IC50: ≥ 125 µM
T. brucei BSF cells (WT); Trypanosoma brucei, read-out: EC50, Alamar blue cell viability assay, WT, individual replicate results, wild type cells, fit ambiguous, bound given in µM
  EC50: > 125 µM
T. brucei BSF cells (WT); continuous treatment
  effect on growth or viability, in words: does not produce these PKA-independent effects
